Laboratory results taken from US7015306B2 (BioSynthema, Inc., priority 1999, dated 2006).
Where a SMILES comes first, the peptide text is derived from it. [ ]: non-standard residue; d: D form. The star is where a group is joined. ξ: configuration not given here. Ala(1-amidino-4-piperidyl) = N=C(N)N1CCC(C[C@H](N)C(=O)O)CC1; DTPA = O=C(O)CN(CCN(CC(=O)O)CC(=O)O)CCN(CC(=O)O)CC(=O)*; Phe(4-guanidino) = N=C(N)Nc1ccc(C[C@H](N)C(=O)O)cc1; ξGly(4-Pip(1-amidino)) = N=C(N)N1CCC(C(N)C(=O)O)CC1; ξPhe(4-guanidino) = N=C(N)Nc1ccc(CC(N)C(=O)O)cc1; X1 = CC(C)C[C@@H](CN[C@@H](CC(C)C)C(N)=O)N*; ξGly(piperidin-4-yl) = NC(C(=O)O)C1CCNCC1; mTyr = N[C@@H](Cc1cccc(O)c1)C(=O)O; Ala(cPr) = N[C@@H](CC1CC1)C(=O)O; tBuAla = CC(C)(C)C[C@H](N)C(=O)O; Tle = CC(C)(C)[C@H](N)C(=O)O; Aba(Apy) = not defined here; Ac6c = NC1(C(=O)O)CCCCC1; Aze = O=C(O)[C@@H]1CCN1

Assays:
[1] = target: neurotensin receptors (Homo sapiens, UniProt P30989); assay: Competitive binding assay on frozen tissue sections of receptor-positive human tumors vs radioiodinated native neurotensin
Sequence of neurotensin receptors (P30989 whole entry): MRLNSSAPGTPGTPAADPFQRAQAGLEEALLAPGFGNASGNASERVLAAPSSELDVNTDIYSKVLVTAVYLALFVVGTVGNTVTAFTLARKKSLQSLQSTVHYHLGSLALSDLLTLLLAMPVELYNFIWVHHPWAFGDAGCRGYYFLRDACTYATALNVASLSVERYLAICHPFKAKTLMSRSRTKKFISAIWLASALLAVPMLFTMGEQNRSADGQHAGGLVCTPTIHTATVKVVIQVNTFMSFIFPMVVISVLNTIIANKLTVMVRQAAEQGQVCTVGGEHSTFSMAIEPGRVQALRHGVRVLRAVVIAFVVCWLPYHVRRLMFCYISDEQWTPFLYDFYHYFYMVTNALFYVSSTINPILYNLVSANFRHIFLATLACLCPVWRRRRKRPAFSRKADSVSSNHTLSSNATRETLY
Text: Frozen tissue sections from receptor-positive human tumors were used in a competitive binding assay.

[2] = In vitro serum stability assay (HPLC) of In-111 labeled peptide; type: in vitro ADME, human; conditions: human serum; for remaining at 4 h: t = 4 h, read-out: HPLC Evaluation of Serum Stability at 37EC, Serum, t = 4 h
Protocol: (§1) All reagents were purchased from Sigma unless otherwise noted. The peptide and ^111InCl3 in 0.05 N HCl were incubated in a sodium acetate/ascorbic acid buffer for 30 minutes at room temperature. The reaction was diluted with 5% ethanol/95% PBS before using in subsequent in vitro assays.
(§2) Human serum was purchased from Sigma (H 1388). The labeled peptide was incubated in either human serum or rat urine at 37EC for the specified amount of time. An aliquot was filtered through a 0.45 μm syringe filter prior to HPLC injection.

[3] = In vitro urine stability assay (HPLC) of In-111 labeled peptide; type: in vitro ADME; conditions: for remaining at 4 h: rat, t = 4 h, read-out: HPLC Evaluation of Urine Stability at 37EC, Urine, t = 4 h
Protocol: as §1, §2

Row | Compound | Kd ([1]; Table 3) | % of peptide at 4 hours after incubation at 37EC, Serum ([2]; 37EC, 4 hours) | % of peptide at 4 hours after incubation at 37EC, Urine ([3]; rat urine, 37EC, 4 hours) | also measured
1 | CC(C)(C)[C@H](NC(=O)[C@H](Cc1ccc(O)cc1)NC(=O)[C@@H]1CCCN1C(=O)[C@H](CCCNC(=N)N)NC(=O)C(NC(=O)[C@@H]1CCCN1C(=O)[C@@H](CCCCN)NC(=O)CN(CCN(CCN(CC(=O)O)CC(=O)O)CC(=O)O)CC(=O)O)C1CCN(C(=N)N)CC1)C(=O)N[C@@H](CC1CC1)C(=O)O (stereo partly drawn) [DTPA-DLys-Pro-Gly(PipAm)-Arg-Pro-Tyr-tBuGly-Cpa-OH] ({DTPA}-[dK]P[ξGly(4-Pip(1-amidino))]RPY[Tle][Ala(cPr)]-OH) | 290 nM | 88.1% | 73.6% | –
2 | CC(C)C[C@H](NC(=O)[C@@H](NC(=O)[C@H](Cc1ccc(O)cc1)NC(=O)[C@@H]1CCN1C(=O)[C@H](CCCNC(=N)N)NC(=O)C(NC(=O)[C@@H]1CCCN1C(=O)[C@@H](CCCCN)NC(=O)CN(CCN(CCN(CC(=O)O)CC(=O)O)CC(=O)O)CC(=O)O)C1CCN(C(=N)N)CC1)C(C)(C)C)C(=O)O (stereo partly drawn) [DTPA-DLys-Pro-Gly(PipAm)-Arg-AzeCA-Tyr-tBuGly-Leu-OH] ({DTPA}-[dK]P[ξGly(4-Pip(1-amidino))]R[Aze]Y[Tle]L-OH) | 740 nM | 79.2% | 36.5% | –
3 | CC[C@H](C)[C@H](NC(=O)[C@H](Cc1ccc(O)cc1)NC(=O)[C@@H]1CCCN1C(=O)C(Cc1ccc(NC(=N)N)cc1)NC(=O)C(Cc1ccc(NC(=N)N)cc1)NC(=O)[C@@H]1CCCN1C(=O)[C@@H](CCCCN)NC(=O)CN(CCN(CCN(CC(=O)O)CC(=O)O)CC(=O)O)CC(=O)O)C(=O)N[C@@H](CC(C)C)C(=O)O (stereo partly drawn) [DTPA-DLys-Pro-(4-Gu)Phe-(4-Gu)Phe-Pro-Tyr-Ile-Leu-OH] ({DTPA}-[dK]P[ξPhe(4-guanidino)][ξPhe(4-guanidino)]PYIL-OH) | 175 nM | 25.2% | 2.3% | –
4 | CC(C)C[C@H](NC(=O)[C@@H](NC(=O)[C@H](Cc1cccc(O)c1)NC(=O)[C@@H]1CCCN1C(=O)[C@H](CCCNC(=N)N)NC(=O)C(NC(=O)[C@@H]1CCCN1C(=O)[C@@H](CCCCN)NC(=O)CN(CCN(CCN(CC(=O)O)CC(=O)O)CC(=O)O)CC(=O)O)C1CCN(C(=N)N)CC1)C(C)(C)C)C(=O)O (stereo partly drawn) [DTPA-DLys-Pro-Gly(PipAm)-Arg-Pro-mTyr-tBuGly-Leu-OH] ({DTPA}-[dK]P[ξGly(4-Pip(1-amidino))]RP[mTyr][Tle]L-OH) | 300 nM | 84.4% | 57.8% | –
5 | CC[C@H](C)[C@H](NC(=O)[C@H](Cc1ccc(O)cc1)NC(=O)[C@@H]1CCCN1C(=O)[C@H](CCCNC(=N)N)NC(=O)C(NC(=O)[C@@H]1CCCN1C(=O)[C@@H](CCCCN)NC(=O)CN(CCN(CCN(CC(=O)O)CC(=O)O)CC(=O)O)CC(=O)O)C1CCN(C(=N)N)CC1)C(=O)N[C@@H](CC(C)C)C(=O)O (single isomer, unassigned) [Compound II, DTPA-DLys-Pro-Gly(PipAm)-Arg-Pro-Tyr-Ile-Leu-OH] | – | 19.5% | 16.6% | Kd ([1]; Table 1): 2.7 nM; % of compound present at 4 hours in serum ([2]; 37EC, 4 hours): 19.5%; % of compound present at 4 hours in urine ([3]; rat urine, 37EC, 4 hours): 16.6%
6 | CC(C)C[C@H](NC(=O)C1(NC(=O)[C@H](Cc2ccc(O)cc2)NC(=O)[C@@H]2CCCN2C(=O)[C@H](CCCNC(=N)N)NC(=O)C(NC(=O)[C@@H]2CCCN2C(=O)[C@@H](CCCCN)NC(=O)CN(CCN(CCN(CC(=O)O)CC(=O)O)CC(=O)O)CC(=O)O)C2CCN(C(=N)N)CC2)CCCCC1)C(=O)O (stereo partly drawn) [DTPA-DLys-Pro-Gly(PipAm)-Arg-Pro-Tyr-Achc-Leu-OH] ({DTPA}-[dK]P[ξGly(4-Pip(1-amidino))]RPY[Ac6c]L-OH) | > 10000 nM | 89.9% | 84.9% | –
7 | CC(C)C[C@H](NC(=O)[C@@H](NC(=O)[C@H](Cc1ccc(O)cc1)NC(=O)[C@@H]1CCCN1C(=O)C(NC(=O)C(NC(=O)[C@@H]1CCCN1C(=O)[C@@H](CCCCN)NC(=O)CN(CCN(CCN(CC(=O)O)CC(=O)O)CC(=O)O)CC(=O)O)C1CCN(C(=N)N)CC1)C1CCNCC1)C(C)(C)C)C(=O)O (stereo partly drawn) [DTPA-DLys-Pro-Gly(PipAm)-PipGly-Pro-Tyr-tBuGly-Leu-OH] ({DTPA}-[dK]P[ξGly(4-Pip(1-amidino))][ξGly(piperidin-4-yl)]PY[Tle]L-OH) | 140 nM | 91.6% | 79.7% | –
8 | CC[C@H](C)[C@H](NC(=O)[C@H](Cc1ccc(O)cc1)NC(=O)[C@@H]1CCCN1C(=O)C(Cc1ccc(NC(=N)N)cc1)NC(=O)[C@H](CCCNC(=N)N)NC(=O)[C@@H]1CCCN1C(=O)[C@@H](CCCCN)NC(=O)CN(CCN(CCN(CC(=O)O)CC(=O)O)CC(=O)O)CC(=O)O)C(=O)N[C@@H](CC(C)C)C(=O)O (single isomer, unassigned) [DTPA-DLys-Pro-Arg-(4-Gu)Phe-Pro-Tyr-Ile-Leu-OH] | 83 nM | 16.3% | 0% | –
9 | CC(C)C[C@H](NC(=O)[C@@H](NC(=O)[C@H](Cc1ccc(O)cc1)NC(=O)[C@@H]1CCCN1C(=O)[C@H](CCCNC(=N)N)NC(=O)C(NC(=O)[C@@H]1CCN1C(=O)[C@@H](CCCCN)NC(=O)CN(CCN(CCN(CC(=O)O)CC(=O)O)CC(=O)O)CC(=O)O)C1CCN(C(=N)N)CC1)C(C)(C)C)C(=O)O (stereo partly drawn) [DTPA-DLys-AzeCA-Gly(PipAm)-Arg-Pro-Tyr-tBuGly-Leu-OH] ({DTPA}-[dK][Aze][ξGly(4-Pip(1-amidino))]RPY[Tle]L-OH) | 24 nM | 79.5% | 49.8% | –
10 | CC(C)(C)C[C@H](NC(=O)[C@@H](NC(=O)[C@H](Cc1ccc(O)cc1)NC(=O)[C@@H]1CCCN1C(=O)[C@H](CCCNC(=N)N)NC(=O)C(NC(=O)[C@@H]1CCCN1C(=O)[C@@H](CCCCN)NC(=O)CN(CCN(CCN(CC(=O)O)CC(=O)O)CC(=O)O)CC(=O)O)C1CCN(C(=N)N)CC1)C(C)(C)C)C(=O)O (stereo partly drawn) [DTPA-DLys-Pro-Gly(PipAm)-Arg-Pro-Tyr-tBuGly-tBuAla-OH] ({DTPA}-[dK]P[ξGly(4-Pip(1-amidino))]RPY[Tle][tBuAla]-OH) | 7.3 nM | 89.2% | 72.3% | –
11 | DTPA-DLys-Pro-Aba(Apy)-Aba(Apy)-Pro-Tyr-Ile-Leu-OH ({DTPA-dK-Pro-Aba(Apy)-Aba(Apy)}-PYIL-OH; reading uncertain) | > 10000 nM | – | – | –
12 | CC(C)C[C@@H](CN[C@@H](CC(C)C)C(N)=O)NC(=O)[C@H](Cc1ccc(O)cc1)NC(=O)[C@@H]1CCCN1C(=O)[C@H](CCCNC(=N)N)NC(=O)[C@H](Cc1ccc(NC(=N)N)cc1)NC(=O)[C@@H]1CCCN1C(=O)[C@@H](CCCCN)NC(=O)CN(CCN(CCN(CC(=O)O)CC(=O)O)CC(=O)O)CC(=O)O [DTPA-DLys-Pro-(4-Gu)Phe-Arg-Pro-Tyr-Leu-(Ψ-CH2-NH)-Leu-OH] ({DTPA}-[dK]P[Phe(4-guanidino)]RPY-X1; C-terminus assumed) | – | 76.2% | 95.7% | –
13 | CC(C)C[C@H](NC(=O)[C@@H](NC(=O)[C@H](Cc1ccc(O)cc1)NC(=O)[C@@H]1CCCN1C(=O)[C@H](CCCNC(=N)N)NC(=O)[C@H](CC1CCN(C(=N)N)CC1)NC(=O)[C@@H]1CCCN1C(=O)[C@@H](CCCCN)NC(=O)CN(CCN(CCN(CC(=O)O)CC(=O)O)CC(=O)O)CC(=O)O)C(C)(C)C)C(=O)O [DTPA-DLys-Pro-Ala(PipAm)-Arg-Pro-Tyr-tBuGly-Leu-OH] ({DTPA}-[dK]P[Ala(1-amidino-4-piperidyl)]RPY[Tle]L-OH) | – | 96.5% | 89.8% | –
14 | CC[C@H](C)[C@H](NC(=O)[C@H](Cc1ccc(O)cc1)NC(=O)[C@@H]1CCCN1C(=O)[C@H](Cc1ccc(NC(=N)N)cc1)NC(=O)[C@H](Cc1ccc(NC(=N)N)cc1)NC(=O)[C@@H]1CCCN1C(=O)[C@@H](CCCCN)NC(=O)CN(CCN(CCN(CC(=O)O)CC(=O)O)CC(=O)O)CC(=O)O)C(=O)N[C@@H](CC(C)C)C(=O)O [In-111-DTPA-DK-P-F(Gu)-F(Gu)-P-Y-I-L, metal not drawn] ({DTPA}-[dK]P[Phe(4-guanidino)][Phe(4-guanidino)]PYIL-OH; C-terminus assumed) | – | – | – | remaining at 4 h ([2]; 37EC): 25.2%; HPLC Evaluation of Serum Stability at 37EC, Serum, t = 0 [2]: 99.0%; HPLC Evaluation of Urine Stability at 37EC, Urine, t = 0 ([3]; rat urine): 92.3%; remaining at 4 h ([3]; 37EC): 2.3%
15 | CC[C@H](C)[C@H](NC(=O)[C@H](Cc1ccc(O)cc1)NC(=O)[C@@H]1CCCN1C(=O)C(CCc1ccnc(N)n1)NC(=O)[C@H](CCCNC(=N)N)NC(=O)[C@@H]1CCCN1C(=O)[C@@H](CCCCN)NC(=O)CN(CCN(CCN(CC(=O)O)CC(=O)O)CC(=O)O)CC(=O)O)C(=O)N[C@@H](CC(C)C)C(=O)O (single isomer, unassigned) [In-111-DTPA-DK-P-R-Aba(Apy)-P-Y-I-L, metal not drawn] | – | – | – | remaining at 4 h ([2]; 37EC): 15.7%; HPLC Evaluation of Serum Stability at 37EC, Serum, t = 0 [2]: 98.1%; HPLC Evaluation of Urine Stability at 37EC, Urine, t = 0 ([3]; rat urine): 96.7%; remaining at 4 h ([3]; 37EC): 4.7%
